[APT] = modified deoxyadenosine dA^PT as named in the publication
Assays:
[1] = system: oligonucleotide of SEQ ID NO: 4 (X=T); assay: CD spectra of DNA duplexes; type: physicochemical; conditions: 4 μM each strand, 10 mM sodium phosphate pH 7, 150 mM NaCl, 1 mM EDTA, 10° C., 220-300 nm; compared with unmodified duplex 4+5
Source text: CD spectra of the DNA duplexes obtained from the hybridization of the oligonucleotides of SEQ ID NOs: 4+1 and 4+2, containing one or two dA^PT, respectively, were compared to that of the parent unmodified duplex obtained by hybridization of the oligonucleotides of SEQ ID NOs: 4+5.

[2] = system: 24-mer single-stranded target DNA sequence of SEQ ID NO: 4 (X=T); assay: thermal denaturation (melting) studies of DNA duplexes followed by absorption spectroscopy; type: binding; conditions: duplex with SEQ ID NO: 4 (X=T); 1 μM each strand, 10 mM sodium phosphate pH 7, 150 mM NaCl, 1 mM EDTA; 260 nm
Method: Oligonucleotide concentrations were 1 μM (each strand) in a 10 mM sodium phosphate, pH 7, buffer containing 150 mM NaCl and 1 mM EDTA. Temperature was increased from 10° C. to 80° C. over 140 min. Melting curves were recorded at X, =260 nm.
The influence of dA replacement (one or two) by the pyrazolo[1,5-a]-1,3,5-triazine derivative (dA^PT) on duplex stability was investigated by thermal denaturation studies, followed by absorption spectroscopy, using DNA duplexes obtained by mixing the modified oligonucleotides of SEQ ID NOs. 1 and 2 with the 24-mer single-stranded target DNA sequence of SEQ ID NO: 4 (X=T). The natural deoxyadenosine was also incorporated in the same positions (SEQ ID NO: 5) for comparison (duplex obtained by hybridization of the oligonucleotides of SEQ ID NOs: 4+5).

[3] = acidic hydrolysis (stability of the glycosidic bond); type: physicochemical; conditions: 80% acetic acid at 65° C. for 45 hr followed by concentrated ammonium hydroxide
Source text: In order to study the stability of the glycosidic bond of the dA^PT described above in acidic conditions, compared with that of dA, two oligonucleotides containing a single incorporation of either dA^PT (SEQ ID NO: 3) or the natural dA (SEQ ID NO: 6) were synthesized.

mouse leukemia cells = conditions: cited from earlier work
HBV = conditions: cited from earlier work
HIV = conditions: cited from earlier work
human platelet = conditions: cited from earlier work

SEQ ID NO: 2: 18-mer 5′d-(TA^PTC CGC GTG CAA^PT CCC TCT)3′ with two dA^PT incorporations (DNA TNCCGCGTGCANCCCTCT; listed as DNA, chemistry not fully specified)
duplex form from CD spectra [1]: still forms a B-form duplex | melting temperature [Tm] [2]: 69.3 °C

SEQ ID NO: 3: 5′d-(TTC CTC TTT CTA^PT CCC TCT)3′, a sole dA^PT and no other purine (DNA TTCCTCTTTCTNCCCTCT; listed as DNA, chemistry not fully specified)
stability in acidic conditions (degradation) [3]: not degraded

Nc1ncnc2c([C@@H]3O[C@H](CO)[C@@H](O)[C@H]3O)cnn12 [compound 10, 4-amino-8-(β-D-ribofuranosyl)pyrazolo[1,5-a]-1,3,5-triazine]
activity compared with formycin (mouse leukemia cells; all systems tested): more active than formycin | inhibitory activity against various mouse leukemia cells (mouse leukemia cells): moderate inhibitory activity

SEQ ID NO: 1: 18-mer 5′d-(TAC CGC GTG CAA^PT CCC TCT)3′ with one dA^PT incorporation (DNA TACCGCGTGCATCCCTCT; DNA, [APT] at 12, backbone not given here)
duplex form from CD spectra [1]: still forms a B-form duplex | melting temperature [Tm] [2]: 69.6 °C

SEQ ID NO: 5: unmodified 5′d-(TAC CGC GTG CAA CCC TCT)3′ with natural deoxyadenosine (DNA TACCGCGTGCAACCCTCT; DNA, backbone not given here)
melting temperature [Tm] [2]: 69 °C

Nc1ncnc2c([C@H]3O[C@@H](CO)[C@H](O)[C@@H]3O)cnn12 [4-amino-8-(β-L-ribofuranosyl)pyrazolo[1,5-a]-1,3,5-triazine]
anti-HBV activity (HBV): no significant | anti-HIV activity (HIV): no significant

CNc1nc(C)nc2c([C@H]3C[C@H](OP(=O)(O)O)[C@@H](COP(=O)(O)O)O3)cnn12 [compound 2, 8-(2′-deoxy-β-D-ribofuranosyl)-2-methyl-4-(N-methylamino)pyrazolo[1,5-a]-1,3,5-triazine-3′,5′-bisphosphate]
inhibition of ADP-induced human platelet aggregation (human platelet): strongly inhibits | inhibition of ADP-induced human platelet shape change (human platelet): strongly inhibits

SEQ ID NO: 6: unmodified 5′d-(TTC CTC TTT CTA CCC TCT)3′ with natural dA (DNA TTCCTCTTTCTACCCTCT; DNA, backbone not given here)
stability in acidic conditions (degradation) [3]: fully fragmented
